Measurements reported in patent US20110263608A1, “16-KETO ASPERGILLIMIDES AND HARMFUL ORGANISM CONTROL AGENT COMPRISING THE SAME AS ACTIVE INGREDIENT” (Meiji Seika Pharma Co., Ltd., priority 2008, published 2011).
Like-named read-outs stand apart in the source and are kept apart here.

Tests used:
Assay type in all cases: in vivo
[1] = system: Haemaphysalis longicornis; test: Tickcidal effect against Haemaphysalis longicornis (dry film in glass vial); settings: 24 h, read-out: Death rate after one day
Protocol: Acetone solution (30 μl) of 200 ppm of compounds 1 to 9 and 20 ppm of compounds A and B was placed in 4 mL-volume glass vials. The vials were placed on a shaker, and a dry film of the compound was formed on the inner wall of the vials. The vials were dried for 24 hr or longer. Larva ticks of Haemaphysalis longicornis (10 heads) were released in the vials, and the vials were lidded.
(§1) Death rate (%)={number of dead larvae/(number of survived larvae+number of dead larvae)}×100

Aphis gossypii = test: Insecticidal effect against Aphis gossypii (cucumber leaf disk); settings: foliar, 72 h, read-out: insecticidal activity (death rate)
Protocol: A leaf disk having a diameter of 2.0 cm was cut out from a cucumber in pot culture, and test solutions adjusted to a 200 ppm concentration (50% aqueous acetone solution; 0.05% Tween 20 added) were applied to the leaf disk. The leaf disk was then air dried, and first instar larvae were released and were then allowed to stand in a humidistat chamber (light period 16 hr—dark period 8 hr) (25° C.). […] The test was duplicated.
as §1

[2] = system: Frankliniella occidentalis; test: Insecticidal effect against Frankliniella occidentalis (kidney bean leaf disk); settings: 100 ppm, first instar larvae, six days after release
Protocol: A leaf disk having a diameter of 2.8 cm was cut out from kidney bean in pot culture, and a test solutions adjusted to a 100 ppm concentration (50% aqueous acetone solution; 0.05% Tween 20 added) were applied to the leaf disk. The leaf disk was then air dried, and first instar larvae were released and were then allowed to stand in a humidistat chamber (light period 16 hr—dark period 8 hr) (25° C.). […] The test was duplicated. Death rate (%)={number of dead larvae/(number of survived larvae+number of dead larvae)}×100

Laodelphax striatellus = test: Insecticidal effect against Laodelphax striatellus (root absorption, wheat seedlings); settings: 72 h, read-out: insecticidal activity (death rate)
Protocol: A test solution (200 μl) adjusted to a 100 ppm concentration (10% aqueous acetone solution) was applied to the root of wheat seedlings in water culture. After the absorption of the test solution from the root for 3 days, 10 second instar larvae of Laodelphax striatellus were released, and the wheat seedlings were then allowed to stand in a humidistat chamber (light period 16 hr—dark period 8 hr) (25° C.). […] The test was duplicated.
as §1

Ctenocephalides felis = test: Fleacidal effect against Ctenocephalides felis (treated filter paper); settings: 6.3 ppm acetone solution (200 μL) on filter paper, adults
Protocol: Acetone solution (200 μL) of 6.3 ppm of compound A was dropped on a filter paper having a diameter of 4.0 cm, and the filter paper was air-dried at room temperature to evaporate acetone. The chemical compound-treated filter paper was tightly fitted into a lid (diameter: 3.7 cm) for a 200-mL vial. About 25 adults of Ctenocephalides felis one to 3 days after adult eclosion were released in the 200 mL-volume vial, and the vial was then sealed by the vial lid with the chemical compound-treated filter paper fitted thereinto. The vial was inverted so that Ctenocephalides felis came into contact with the filter paper and, in this state, was left to stand. […] The test was triplicated.
as §1

[3] = Single oral administration acute toxicity against rat; settings: female, Jcl: Wistar, in vivo, 2000 mg/kg, single oral administration
Protocol: (§2) Compound A was suspended at a concentration of 100 mg/mL using 0.5% methylcellulose. The test solution was forcibly orally administered to rats (Jcl: Wistar, female, 8 week olds) with a tube and a disposable syringe. The dose was 2000 mg/kg. […]

[4] = system: rats (Jcl: Wistar, female); test: as above; settings: single oral dose 2000 mg/kg, 15 days
Protocol: as §2

[5] = system: Haemaphysalis longicornis; test: Tickcidal effect against Haemaphysalis longicornis on body surface of mouse; settings: larvae
Text: Skin hair on the back of mice (ICR, male, 5 week olds) was clipped in a diameter of about 2 cm, and a 15-mL polystyrene conical tube cut to have a height of about 1.5 cm was bonded to the body surface of the mice with an instant adhesive.
as §1

[6] = 200 ppm, first instar larvae, three days after release
[7] = 200 ppm acetone solution (30 μl), dry film, larva ticks, 25 C
[8] = 100 ppm (200 μl) to root, second instar larvae, three days after release

Molecule C[C@H]1CCN2C[C@]34C[C@]5(CC(=O)N(C)C5=O)C(C)(C)[C@@H]3C[C@]12C(=O)N4C [Compound B, asperparaline A] has a pest or weed control at 20 µg/mL ([1]; 20 ppm acetone solution (30 μl), dry film, larva ticks, 25 C) of 100%.

For C[C@H]1CC(=O)N2C[C@]34C[C@@]5(C(=O)N(C)C(=O)C5Cc5ccccc5)C(C)(C)[C@@H]3C[C@]12C(=O)N4C (some centres unmarked) [Compound 10], the pest or weed control at 200 ppm (Aphis gossypii; [6]) was ≥ 80%.

In the case of COC1C[C@]2(C[C@@]34CN5C(=O)C[C@H](C)[C@]5(C[C@@H]3C2(C)C)C(=O)N4C)C(=O)N1C (some centres unmarked) [Compound 8], the pest or weed control at 200 µg/mL [1, 7] is reported as 100%, the pest or weed control at 200 ppm (Aphis gossypii; [6]) is reported as ≥ 80% and the “insecticidal activity (death rate)” value [2] is reported as “not less than 80%”. For the same molecule, the pest or weed control at 100 ppm (Laodelphax striatellus; [8]) was 100%.

With C[C@H]1CC(=O)N2C[C@]34C[C@]5(CC(=O)N(C)C5=O)C(C)(C)[C@@H]3C[C@]12C(=O)N4C [Compound A, 16-keto aspergillimide] the pest or weed control at 20 µg/mL [1] was 100%, the “Death rate after three days” value (Ctenocephalides felis) was 73% and the LD50 at 15 days [3] was ≥ 2000 mg/kg. For the same molecule, the “Cumulative number of dead rats 15 days after administration (number of death/total number of rats tested)” value [4] was 0/3, the “Death rate after three days” value ([5]; dose 2 μg/2 cm^2 on mouse body surface) was 60% and the “Death rate after three days” value ([5]; dose 6 μg/2 cm^2 on mouse body surface) was 93%. The “Death rate after three days” value ([5]; dose 10 μg/2 cm^2 on mouse body surface) was 100%.

In the case of C[C@H]1CC(=O)N2C[C@@]34C[C@@]5(C(=O)N(C)C=C5C5C[C@]6(C[C@]78CN9C(=O)C[C@H](C)[C@@]9(C[C@H]7C6(C)C)C(=O)N8C)C(=O)N5C)C(C)(C)[C@@H]3C[C@]12C(=O)N4C (some centres unmarked) [Compound 5], the pest or weed control at 200 ppm (Aphis gossypii) is reported as ≥ 80%.

For C[C@H]1CC(=O)N2C[C@]34C[C@]5(C=CN(C)C5=O)C(C)(C)[C@@H]3C[C@]12C(=O)N4C [Compound 3], the pest or weed control at 200 µg/mL [1] was 80%, the pest or weed control at 200 ppm (Aphis gossypii) was ≥ 80% and the pest or weed control at 100 ppm (Laodelphax striatellus) was 100%.

For C[C@H]1CC(=O)N2C[C@]34C[C@]5(CCN(C)C5=O)C(C)(C)[C@@H]3C[C@]12C(=O)N4C [Compound 4], the pest or weed control at 200 µg/mL [1] was 100%, the pest or weed control at 200 ppm (Aphis gossypii) was ≥ 80% and the pest or weed control at 100 ppm (Laodelphax striatellus) was 100%.

In the case of C[C@H]1CC(=O)N2C[C@]34C[C@]5(C[C@@H](O)N(C)C5=O)C(C)(C)[C@H]3C[C@]12C(=O)N4C [Compound 1], the pest or weed control at 200 µg/mL [1] is reported as 80%, the pest or weed control at 200 ppm (Aphis gossypii) is reported as ≥ 80% and the pest or weed control at 100 ppm (Laodelphax striatellus) is reported as 100%.

With C[C@H]1CC(=O)N2C[C@]34C[C@@]5(C(=O)N(C)C(=O)C5O)C(C)(C)[C@@H]3C[C@]12C(=O)N4C (some centres unmarked) [Compound 7] the pest or weed control at 200 µg/mL [1, 7] was 100%, the pest or weed control at 200 ppm (Aphis gossypii; [6]) was ≥ 80% and the pest or weed control at 100 ppm (Laodelphax striatellus; [8]) was 100%.

For C[C@H]1CC(=O)N2C[C@]34C[C@]5(CC(OCc6ccccc6)N(C)C5=O)C(C)(C)[C@@H]3C[C@]12C(=O)N4C (some centres unmarked) [Compound 9], the pest or weed control at 200 µg/mL [1, 7] was 100%, the pest or weed control at 200 ppm (Aphis gossypii; [6]) was ≥ 80% and the pest or weed control at 100 ppm (Laodelphax striatellus; [8]) was 100%.

For C[C@H]1CC(=O)N2C[C@]34C[C@@]5(C(=O)N(C)C6OC65)C(C)(C)[C@@H]3C[C@]12C(=O)N4C (some centres unmarked) [Compound 6], the pest or weed control at 200 µg/mL [1] was 100%, the pest or weed control at 200 ppm (Aphis gossypii) was ≥ 80% and the pest or weed control at 100 ppm (Laodelphax striatellus) was 100%.

For CC(=O)O[C@@H]1C[C@]2(C[C@@]34CN5C(=O)C[C@H](C)[C@]5(C[C@@H]3C2(C)C)C(=O)N4C)C(=O)N1C [Compound 2], the pest or weed control at 200 µg/mL [1, 7] was 100%, the pest or weed control at 200 ppm (Aphis gossypii; [6]) was ≥ 80% and the pest or weed control at 100 ppm (Laodelphax striatellus; [8]) was 100%.
